Reference: the supplement of paper PMC11061612

Legend:
Carboplatin = compound: C1CC(C1)(C(=O)[O-])C(=O)[O-].N.N.[Pt+2] [Carboplatin]; details: max 10 µM
Method in brief: (§1)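 Cancer cell lines were seeded into 1536-well plates in 7.5 μl medium (DMEM/F12 or RPMI, 10% FBS), held 24 hours at 37°C and 5% CO2, and dosed for 72 hours with final DMSO typically 0.2%. Luminescence from CellTiter-Glo 2.0, scaled between blank-well and DMSO-well means, served as viability. The single-agent IC50 was obtained from dose-response fits with a non-linear mixed effects model, each fit being a two-parameter logistic curve.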

AZD5363 = compound: C1CN(CCC1(C(=O)N[C@@H](CCO)C2=CC=C(C=C2)Cl)N)C3=NC=NC4=C3C=CN4 [AZD5363]; details: max 10 µM
Method in brief: as §1

AZD1775 = compound: C=CCn1c(=O)c2cnc(Nc3ccc(N4CCN(C)CC4)cc3)nc2n1-c1cccc(C(C)(C)O)n1 [AZD1775]; details: max 3 µM
Method in brief: as §1

Trametinib = compound: CC(=O)Nc1cccc(-n2c(=O)n(C3CC3)c(=O)c3c(Nc4ccc(I)cc4F)n(C)c(=O)c(C)c32)c1 [Trametinib]; details: max 1 µM
Method in brief: as §1

Paclitaxel = compound: CC(=O)O[C@H]1C(=O)[C@@]2(C)[C@H]([C@H](OC(=O)c3ccccc3)[C@]3(O)C[C@H](OC(=O)[C@H](O)[C@@H](NC(=O)c4ccccc4)c4ccccc4)C(C)=C1C3(C)C)[C@]1(OC(C)=O)CO[C@@H]1C[C@@H]2O [Paclitaxel]; details: max 3 µM
Method in brief: as §1

Palbociclib = compound: CC(=O)c1c(C)c2cnc(Nc3ccc(N4CCNCC4)cn3)nc2n(C2CCCC2)c1=O [Palbociclib]; details: max 10 µM
Method in brief: as §1

AZD1390 = compound: CC(C)n1c(=O)n(C)c2cnc3cc(F)c(-c4ccc(OCCCN5CCCCC5)nc4)cc3c21 [AZD1390]; details: max 0.3 µM
Method in brief: as §1

Venetoclax = compound: CC1(C)CCC(CN2CCN(c3ccc(C(=O)NS(=O)(=O)c4ccc(NCC5CCOCC5)c([N+](=O)[O-])c4)c(Oc4cnc5[nH]ccc5c4)c3)CC2)=C(c2ccc(Cl)cc2)C1 [Venetoclax]; details: max 1 µM
Method in brief: as §1

Dasatinib = compound: CC1=C(C(=CC=C1)Cl)NC(=O)C2=CN=C(S2)NC3=CC(=NC(=N3)C)N4CCN(CC4)CCO [Dasatinib]; details: max 2 µM
Method in brief: as §1

SG3199 = compound: CC1=CN2[C@@H](C1)C=NC3=CC(=C(C=C3C2=O)OC)OCCCCCOC4=C(C=C5C(=C4)N=C[C@@H]6CC(=CN6C5=O)C)OC [SG3199]; details: max 0.001 µM
Method in brief: as §1

AZD2811 = compound: CCN(CCO)CCCOc1ccc2c(Nc3cc(CC(=O)Nc4cccc(F)c4)[nH]n3)ncnc2c1 [AZD2811]; details: max 1 µM
Method in brief: as §1

SN-38 = compound: CCc1c2c(nc3ccc(O)cc13)-c1cc3c(c(=O)n1C2)COC(=O)[C@]3(O)CC [SN-38]; details: max 0.3 µM
Method in brief: as §1

AZD0156 = compound: CN(C)CCCOc1ccc(-c2ccc3ncc4c(c3c2)n(C2CCOCC2)c(=O)n4C)cn1 [AZD0156]; details: max 3 µM
Method in brief: as §1

AZD4320 = compound: CN(CC[C@H](CSC1=CC=CC=C1)NC2=C(C=C(C=C2)S(=O)(=O)NC(=O)C3=CC=C(C=C3)N4CCC(CC4)[C@H](C5=CC=CC=C5C6=CC=C(C=C6)Cl)O)S(=O)(=O)C(F)(F)F)CCO [AZD4320]; details: max 1 µM
Method in brief: as §1

Alisertib = compound: COc1cc(Nc2ncc3c(n2)-c2ccc(Cl)cc2C(c2c(F)cccc2OC)=NC3)ccc1C(=O)O [Alisertib]; details: max 10 µM
Method in brief: as §1

Etoposide = compound: COc1cc([C@@H]2c3cc4c(cc3[C@@H](O[C@@H]3O[C@@H]5CO[C@@H](C)O[C@H]5[C@H](O)[C@H]3O)[C@H]3COC(=O)[C@H]23)OCO4)cc(OC)c1O [Etoposide]; details: max 10 µM
Method in brief: as §1

Gefitinib = compound: COc1cc2ncnc(Nc3ccc(F)c(Cl)c3)c2cc1OCCCN1CCOCC1 [Gefitinib]; details: max 10 µM
Method in brief: as §1

Prexasertib = compound: COc1cccc(OCCCN)c1-c1cc(Nc2cnc(C#N)cn2)n[nH]1 [Prexasertib]; details: max 1 µM
Method in brief: as §1

Doxorubicin = compound: COc1cccc2c1C(=O)c1c(O)c3c(c(O)c1C2=O)C[C@@](O)(C(=O)CO)C[C@@H]3O[C@H]1C[C@H](N)[C@H](O)[C@H](C)O1 [Doxorubicin]; details: max 1 µM
Method in brief: as §1

AZD5153 = compound: COc1nnc2ccc(N3CCC(c4ccc(OCCN5CCN(C)C(=O)[C@H]5C)cc4)CC3)nn12 [AZD5153]; details: max 1 µM
Method in brief: as §1

Lapatinib = compound: CS(=O)(=O)CCNCc1ccc(-c2ccc3ncnc(Nc4ccc(OCc5cccc(F)c5)c(Cl)c4)c3c2)o1 [Lapatinib]; details: max 10 µM
Method in brief: as §1

AZD8186 = compound: C[C@@H](Nc1cc(F)cc(F)c1)c1cc(C(=O)N(C)C)cc2c(=O)cc(N3CCOCC3)oc12 [AZD8186]; details: max 10 µM
Method in brief: as §1

Crizotinib = compound: C[C@@H](Oc1cc(-c2cnn(C3CCNCC3)c2)cnc1N)c1c(Cl)ccc(F)c1Cl [Crizotinib]; details: max 10 µM
Method in brief: as §1

Savolitinib = compound: C[C@@H](c1ccc2nccn2c1)n1nnc2ncc(-c3cnn(C)c3)nc21 [Savolitinib]; details: max 1 µM
Method in brief: as §1

AZD6738 = compound: C[C@@H]1COCCN1C2=NC(=NC(=C2)C3(CC3)[S@](=N)(=O)C)C4=C5C=CNC5=NC=C4 [AZD6738]; details: max 10 µM
Method in brief: as §1

AZD5991 = compound: Cc1c2c(nn1C)CSCc1cc(n(C)n1)CSc1cc(c3ccccc3c1)OCCCc1c(C(=O)O)n(C)c3c-2c(Cl)ccc13 [AZD5991]; details: max 1 µM
Method in brief: as §1

AZD7648 = compound: Cc1cc2ncnn2cc1Nc1ncc2c(n1)n(C1CCOCC1)c(=O)n2C [AZD7648]; details: max 10 µM
Method in brief: as §1

Taselisib = compound: Cc1nc(-c2cn3c(n2)-c2ccc(-c4cnn(C(C)(C)C(N)=O)c4)cc2OCC3)n(C(C)C)n1 [Taselisib]; details: max 10 µM
Method in brief: as §1

Selumetinib = compound: Cn1cnc2c(F)c(Nc3ccc(Br)cc3Cl)c(C(=O)NOCCO)cc21 [Selumetinib]; details: max 10 µM
Method in brief: as §1

SRA737 = compound: N#Cc1cnc(Nc2cc(NC[C@H]3CNCCO3)c(C(F)(F)F)cn2)cn1 [SRA737]; details: max 10 µM
Method in brief: as §1

MK-2206 = compound: NC1(c2ccc(-c3nc4ccn5c(=O)[nH]nc5c4cc3-c3ccccc3)cc2)CCC1 [MK-2206]; details: max 10 µM
Method in brief: as §1

Gemcitabine = compound: Nc1ccn([C@@H]2O[C@H](CO)[C@@H](O)C2(F)F)c(=O)n1 [Gemcitabine]; details: max 0.3 µM
Method in brief: as §1

[1] = compound: O=C(Nc1ccc2[nH]nc(-c3ccncc3)c2c1)[C@@H]1CCN(CC(=O)N2CCN(c3ccc(-c4ncccn4)cc3)CC2)C1; details: max 5 µM
Method in brief: as §1

Olaparib = compound: O=C(c1cc(Cc2n[nH]c(=O)c3ccccc23)ccc1F)N1CCN(C(=O)C2CC2)CC1 [Olaparib]; details: max 10 µM
Method in brief: as §1

5-Fluorouracil = compound: O=c1[nH]cc(F)c(=O)[nH]1 [5-Fluorouracil]; details: max 20 µM
Method in brief: as §1

Row | Cell Line | IC50, cell viability 72 h (Carboplatin) [µM] | IC50, cell viability 72 h (AZD5363) [µM] | IC50, cell viability 72 h (AZD1775) [µM] | IC50, cell viability 72 h (Trametinib) [µM] | IC50, cell viability 72 h (Paclitaxel) [µM] | IC50, cell viability 72 h (Palbociclib) [µM] | IC50, cell viability 72 h (AZD1390) [µM] | IC50, cell viability 72 h (Venetoclax) [µM] | IC50, cell viability 72 h (Dasatinib) [µM] | IC50, cell viability 72 h (SG3199) [µM] | IC50, cell viability 72 h (AZD2811) [µM] | IC50, cell viability 72 h (SN-38) [µM] | IC50, cell viability 72 h (AZD0156) [µM] | IC50, cell viability 72 h (AZD4320) [µM] | IC50, cell viability 72 h (Alisertib) [µM] | IC50, cell viability 72 h (Etoposide) [µM] | IC50, cell viability 72 h (Gefitinib) [µM] | IC50, cell viability 72 h (Prexasertib) [µM] | IC50, cell viability 72 h (Doxorubicin) [µM] | IC50, cell viability 72 h (AZD5153) [µM] | IC50, cell viability 72 h (Lapatinib) [µM] | IC50, cell viability 72 h (AZD8186) [µM] | IC50, cell viability 72 h (Crizotinib) [µM] | IC50, cell viability 72 h (Savolitinib) [µM] | IC50, cell viability 72 h (AZD6738) [µM] | IC50, cell viability 72 h (AZD5991) [µM] | IC50, cell viability 72 h (AZD7648) [µM] | IC50, cell viability 72 h (Taselisib) [µM] | IC50, cell viability 72 h (Selumetinib) [µM] | IC50, cell viability 72 h (SRA737) [µM] | IC50, cell viability 72 h (MK-2206) [µM] | IC50, cell viability 72 h (Gemcitabine) [µM] | IC50, cell viability 72 h [1] [µM] | IC50, cell viability 72 h (Olaparib) [µM] | IC50, cell viability 72 h (5-Fluorouracil) [µM]
1 | LCLC-103H (Non-Small Cell Lung Carcinoma) | > 10 | > 10 | 2.19 | > 1 | 0.0178 | > 10 | > 0.3 | > 1 | > 2 | > 0.001 | > 1 | > 0.3 | > 3 | > 1 | > 10 | > 10 | > 10 | 0.0881 | > 1 | > 1 | > 10 | > 10 | > 10 | > 1 | > 10 | > 1 | > 10 | > 10 | > 10 | > 10 | > 10 | > 0.3 | > 5 | > 10 | > 20
2 | LS-1034 (Colorectal Carcinoma) | > 10 | > 10 | 0.918 | 0.052 | 0.59 | > 10 | > 0.3 | > 1 | > 2 | > 0.001 | > 1 | > 0.3 | > 3 | > 1 | > 10 | > 10 | > 10 | 0.238 | > 1 | 0.85 | > 10 | > 10 | > 10 | > 1 | 6.05 | > 1 | > 10 | > 10 | 2.42 | > 10 | > 10 | 0.12 | > 5 | > 10 | > 20
3 | MDA-MB-415 (Breast Carcinoma) | > 10 | 0.727 | > 3 | > 1 | 0.0298 | > 10 | > 0.3 | > 1 | > 2 | > 0.001 | > 1 | > 0.3 | > 3 | 0.847 | > 10 | > 10 | > 10 | > 1 | > 1 | > 1 | > 10 | 0.216 | > 10 | > 1 | > 10 | > 1 | > 10 | 6.01 | > 10 | > 10 | 1.25 | > 0.3 | > 5 | > 10 | > 20
4 | MONO-MAC-6 (Acute Myeloid Leukemia) | > 10 | 5.27 | 0.535 | 0.446 | 0.00721 | > 10 | > 0.3 | > 1 | > 2 | > 0.001 | 0.303 | 0.00764 | > 3 | > 1 | 2.09 | 2.85 | > 10 | 0.052 | 0.127 | 0.0306 | > 10 | 6.44 | 2.98 | > 1 | 3.4 | 0.0678 | > 10 | 4.75 | > 10 | 3.35 | 4.14 | 0.00443 | 2.1 | > 10 | 1.63
5 | MS-1 (Small Cell Lung Carcinoma) | > 10 | > 10 | 0.531 | > 1 | 0.104 | > 10 | > 0.3 | > 1 | > 2 | > 0.001 | > 1 | 0.0577 | > 3 | > 1 | > 10 | 7.2 | > 10 | 0.022 | 0.244 | 0.12 | > 10 | > 10 | 6.28 | > 1 | 4.38 | > 1 | > 10 | > 10 | > 10 | 9.42 | > 10 | 0.197 | > 5 | > 10 | > 20
